Experimental data from patent publication US20100093863A1, “USE OF CITRULLINE FOR PREVENTING AN INCREASE IN PROTEIN CARBONYLATION AND FOR TREATING DISEASES RESULTING THEREFROM” (UNIVERSITE PARIS DESCARTESURE, priority 2007, published 2010).

Experiments:
[1] = tested on: carbonylation of the cerebral proteins; test: Carbonylation of cerebral proteins (DNPH assay, brain) in elderly rats; type: in vivo, Sprague-Dawley rats
Protocol: (§1) Male Sprague-Dawley rats (Charles River Laboratoires, L′Arbresles, France) aged 25 months are placed in individual cages in a thermostatically-controlled atmosphere (23°±1° C.), and subjected to a 12-hour light-darkness cycle (darkness from 8 h to 20 h). The manager of the programme is authorized (no. 75.522) by the Ministry of Agriculture and Forestry to carry out this type of experiment. Moreover, the use and the treatment of the laboratory animals comply with legislation (D2001-486) and are in accordance with European legislation (Official Journal of the European Community L358 Dec. 18, 1986).
(§2) The rats are acclimatized for 2 weeks during which spontaneous food consumption is measured. […]
AANE group (n=4): the animals receive a standard diet rendered isonitrogenous compared with that of the CIT group by the addition of non-essential amino acids (alanine, asparagine, glycine, serine, histidine, and proline in equimolar quantities) for 1 month. […]
The processes of oxidation of the proteins affecting the structure of the amino acids which comprise them are complex and all give rise to the formation of carbonyl groups. For this reason it was decided to carry out an overall evaluation of the oxidation of the muscle proteins by quantifying the carbonylated derivatives from a sample of 1 g of brain. […] One of the cups serves as a blank and the other to quantify the carbonyl groups. […]

[2] = tested on: carbonylation of muscle proteins; test: Carbonylation of muscle proteins (DNPH assay, tibialis anterior) in malnourished-renourished rats; type: in vivo, Sprague-Dawley rats; conditions: rats aged 19 months, 12 weeks restricted diet, renourished one week with diet enriched with citrulline (5 g/kg/d); FIG. 1 column 4 versus column 3
Protocol: as §1, with “L'Arbresles,” for “L′Arbresles,”, “19” for “25”, “C.)” for “C.),”, “12-h” for “12-hour”
as §2
The processes of oxidation of the proteins affecting the structure of the amino acids which comprise them are complex and all give rise to the formation of carbonyl groups. For this reason it was decided to carry out an overall evaluation of the oxidation of the muscle proteins by quantifying the carbonylated derivatives from a sample of 300 mg of tibialis anterior. […] The solubilized proteins are separated into two equal fractions in order to have two cups containing the same quantity of proteins (1-1.5 mg/ml). One of the cups serves as a blank and the other to quantify the carbonyl groups. […]

In the case of `NC(=O)NCCCC(N)C(=O)O` (stereo not drawn) [citrulline, 2-amino-5-(carbamoylamino)pentanoic acid], the Carbonylated proteins ([1]; brain of rats aged 25 months, enriched standard diet for 1 month (CIT 1 g/kg/d; AANE isonitrogenous), Average ± ASD) is reported as 164 ± 12 µmol/g, the “decrease in the carbonylation of the cerebral proteins” value ([1]; elderly healthy rats, diet enriched with CIT (1 g/kg/d, 1 month) versus AANE group) is reported as roughly 10% and the “increase in the carbonylation of muscle proteins accompanying malnutrition-renutrition” value [2] is reported as “this phenomenon disappears completely”.
